Experimental data as given in patent publication US20220110889A1, “R-KETAMINE AND DERIVATIVE THEREOF AS PROPHYLACTIC OR THERAPEUTIC AGENT FOR NEURODEV[…]” (National University Corporation Chiba University, priority 2018, published 2022).
“Also recorded” adds a separate entry of the source.

Key:
[1] = test system: mice treated with PCP serving as animal models of schizophrenia; assay: Novel object recognition test (NORT) in mice repeatedly administered with PCP (animal model of schizophrenia); type: in vivo; conditions: for cognitive function in NORT (ratio of time to find the novel object relative to time to find the two objects): male ICR mice, PCP 10 mg/kg s.c. for ten days, test drug 10 mg/kg intraperitoneally on days 15, 18, 22, 25, vs PCP+physiological saline
Protocol: The creation of model animals of a cognitive impairment of schizophrenia and drug administration were specifically carried out as described below (FIG. 1). For the mice, male ICR mice (8 weeks old, Japan SLC Inc., Hamamatsu, Japan) were purchased. The mice were allowed to freely ingest water and feed. On the first day of testing, physiological saline (10 mL/kg bodyweight) or PCP (10 mg/kg bodyweight) was subcutaneously administered once a day for ten days (from the first day of testing to the fifth day of testing and from the eighth day of testing to the twelfth day of testing: no administration on the sixth and seventh days of testing). On the fifteenth day of testing, the eighteenth day of testing, the twenty-second day of testing, and the twenty-fifth day of testing, R-ketamine (10 mg/kg bodyweight) or a medium (10 mL/kg of physiological saline) was intraperitoneally administered. […] The novel object recognition test (NORT: novel object recognition test) is a system used to evaluate cognitive functions. The NORT was carried out according to a previous report (Hashimoto et al. Eur. J. Pharmacol. 2005; 519 (1-2): 114-117). From the twenty-sixth day to the twenty-eighth day of testing, acclimation to a NORT apparatus (50.8×50.8×25.4 cm) was performed for 10 minutes per day. On the twenty-ninth day of testing, two objects of different shapes and colors were placed 35.5 cm apart in the NORT apparatus, and an amount of time to find each object was measured. A training session (10 minutes) was carried out, and on the following day, the thirtieth day of testing, a test session (5 minutes) was carried out (FIG. 1). In the test session on the following day, one object was replaced with another, new object (novel object). An amount of time to find the two objects was measured, and in the test session on the second day, a ratio of an amount of time to find the novel object relative to the amount of time to find the two objects was calculated. On the day following the end of behavior testing, a brain region (frontal cortex, hippocampus) of the mice was extracted, and the brain tissue was stored in a freezer. Brain-derived neurotrophic factor (BDNF: brain-derived neurotrophic factor); TrkB, which is a BDNF receptor; and phosphorylated TrkB in the brain tissue were quantified by western blotting (FIG. 3).
The effect of S-ketamine was examined according to the method above. On the first day of testing, physiological saline (10 mL/kg bodyweight) or PCP (10 mg/kg bodyweight) was subcutaneously administered once a day for ten days (from the first day of testing to the fifth day of testing and from the eighth day of testing to the twelfth day of testing: no administration on the sixth and seventh days of testing). […]

[2] = animal testing, non-patent literature 12 to 14; cited from earlier work
BDNF-TrkB system = assay: Western blotting of BDNF, TrkB and phosphorylated TrkB in frontal cortex and hippocampus of PCP-treated mice; type: in vivo; conditions: R-ketamine 10 mg/kg i.p., brain extracted after behavior testing
Protocol: The creation of model animals of a cognitive impairment of schizophrenia and drug administration were specifically carried out as described below (FIG. 1). For the mice, male ICR mice (8 weeks old, Japan SLC Inc., Hamamatsu, Japan) were purchased. The mice were allowed to freely ingest water and feed. On the first day of testing, physiological saline (10 mL/kg bodyweight) or PCP (10 mg/kg bodyweight) was subcutaneously administered once a day for ten days (from the first day of testing to the fifth day of testing and from the eighth day of testing to the twelfth day of testing: no administration on the sixth and seventh days of testing). On the fifteenth day of testing, the eighteenth day of testing, the twenty-second day of testing, and the twenty-fifth day of testing, R-ketamine (10 mg/kg bodyweight) or a medium (10 mL/kg of physiological saline) was intraperitoneally administered. […] On the day following the end of behavior testing, a brain region (frontal cortex, hippocampus) of the mice was extracted, and the brain tissue was stored in a freezer. Brain-derived neurotrophic factor (BDNF: brain-derived neurotrophic factor); TrkB, which is a BDNF receptor; and phosphorylated TrkB in the brain tissue were quantified by western blotting (FIG. 3). […]

[3] = test system: baby mice (male) born from pregnant mice administered with Poly (I:C); assay: Novel object recognition test in offspring of pregnant mice administered with Poly (I:C) (maternal immune activation model); type: in vivo; conditions: male offspring of Poly (I:C) 5 mg/kg dams; R-ketamine 10 mg/kg i.p. twice a week, four weeks (weeks 4 to 8 after birth); NORT at 10 weeks old or thereafter
Protocol: The creation of model animals of a neurodevelopmental disorder such as schizophrenia or autism spectrum disorder (models of maternal immune activation) and drug administration were specifically carried out as described below (FIG. 5). For the mice, pregnant ddY mice (8 to 10 weeks old, Japan SLC Inc., Hamamatsu, Japan) were purchased. The mice were allowed to freely ingest water and feed. Physiological saline (5 mL/kg bodyweight) or Poly (I:C) (Sigma-Aldrich: 5 mg/kg bodyweight) was intraperitoneally administered for six days, from the twelfth day of pregnancy to the seventeenth day of pregnancy, according to previous reports (Han M, et al. Sci Rep 2016; 6:36087. Matsuura A, et al. Sci Rep 2018; 8: 2158. Ma M, et al. Proc Natl Acad Sci USA 2019; 116: 7083-7088). After birth, the mice were raised normally, and at 3 weeks old, only the male mice were weaned and raised. R-ketamine (10 mg/kg bodyweight) or a medium (10 mL/kg of physiological saline) was intraperitoneally administered twice a week for four weeks, from the fourth week after birth to the eighth week after birth. […] From 8 weeks old, these were raised normally. The above NORT was carried out at 10 weeks old or thereafter.
Statistical analysis was carried out by performing a one-way analysis of variance (one-way ANOVA) and subsequently performing Fisher's LSD (Fisher's LSD). […]

NMDA receptors = conditions: non-patent literature 11; cited from earlier work

| Compound | effect of ANA-12 pretreatment on the therapeutic effect of R-ketamine in NORT ([1]; PCP-treated mice, ANA-12 0.5 mg/kg i.p. 30 minutes before R-ketamine 10 mg/kg i.p.) | side effects (such as drug dependency and an action of inducing a mental illness) compared to S-ketamine [2] | BDNF protein expression in the frontal cortex and the hippocampus (BDNF-TrkB system) | ratio p-TrkB/TrkB in the frontal cortex and the hippocampus (BDNF-TrkB system) | cognitive impairment at maturity in NORT [3] | cognitive function in NORT, TrkB role study ([1]; PCP-treated mice, solvent 30 minutes before R-ketamine 10 mg/kg i.p. on days 15, 18, 22, 25) | cognitive function in NORT (ratio of time to find the novel object relative to time to find the two objects) [1] | affinity toward NMDA receptors relative to R-ketamine (NMDA receptors) |
| --- | --- | --- | --- | --- | --- | --- | --- | --- |
| O=C(Nc1ccccc1C(=O)NC1CCCCNC1=O)c1cc2ccccc2s1 (stereo not drawn) [ANA-12, reference compound] | suppressed the therapeutic effect of R-ketamine | – | – | – | – | – | – | – |
| CN[C@@]1(c2ccccc2Cl)CCCCC1=O [R-ketamine] | – | fewer side effects | significantly improved | significantly improved | suppressed a cognitive impairment at maturity | significantly improved the reduced cognitive function due to PCP administration | significantly improved the reduced cognitive function due to PCP administration; also recorded: exhibits a therapeutic effect | – |
| CN[C@]1(c2ccccc2Cl)CCCCC1=O [S-ketamine, reference compound] | – | – | – | – | – | – | did not improve the reduced cognitive function due to PCP administration; also recorded: exhibited no therapeutic effect | stronger affinity toward NMDA receptors; also recorded: about four times higher than R-ketamine |
